Holding throughout (assay): relative viability (nuclei count vs DMSO), 5 days (fraction); higher = more cells survive
Compound in the assay “Bleomycin + Alpelisib”: CC1=C(N=C(N=C1N)[C@H](CC(=O)N)NC[C@@H](C(=O)N)N)C(=O)N[C@@H]([C@H](C2=CN=CN2)OC3C(C(C(C(O3)CO)O)O)OC4C(C(C(C(O4)CO)O)OC(=O)N)O)C(=O)N[C@H](C)[C@H]([C@H](C)C(=O)N[C@@H]([C@@H](C)O)C(=O)NCCC5=NC(=CS5)C6=NC(=CS6)C(=O)NCCC[S+](C)C)O [Bleomycin] + Cc1nc(NC(=O)N2CCC[C@H]2C(N)=O)sc1-c1ccnc(C(C)(C)C(F)(F)F)c1 [Alpelisib] (partner 2 µM)
Conditions: main component drawn. In short, it runs like this: (§1)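 Medians of duplicate plates are given as relative viability. That measure is the nuclei count in treated wells divided by the count in vehicle wells. Counts were taken on 4× images of lung cancer cell lines in 1536-well plates, 5 days after pin-tool dosing the day after seeding with one drug alone or a fixed anchor-drug dose plus five library-drug doses (not always all listed) in √10 steps.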

Compound in the assay “Etoposide + Pemetrexed”: COc1cc([C@@H]2c3cc4c(cc3[C@@H](O[C@@H]3O[C@@H]5CO[C@@H](C)O[C@H]5[C@H](O)[C@H]3O)[C@H]3COC(=O)[C@H]23)OCO4)cc(OC)c1O [Etoposide] + Nc1nc2[nH]cc(CCc3ccc(C(=O)N[C@@H](CCC(=O)O)C(=O)O)cc3)c2c(=O)[nH]1 [Pemetrexed] (partner 0.2 µM)
In short, it runs like this: as §1

Compound in a further assay: CC1=C(N=C(N=C1N)[C@H](CC(=O)N)NC[C@@H](C(=O)N)N)C(=O)N[C@@H]([C@H](C2=CN=CN2)OC3C(C(C(C(O3)CO)O)O)OC4C(C(C(C(O4)CO)O)OC(=O)N)O)C(=O)N[C@H](C)[C@H]([C@H](C)C(=O)N[C@@H]([C@@H](C)O)C(=O)NCCC5=NC(=CS5)C6=NC(=CS6)C(=O)NCCC[S+](C)C)O [Bleomycin]
The settings on record: main component drawn. In short, it runs like this: (§2)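 Viability was read as treated-well nuclei divided by vehicle-well nuclei, using the median across plates. Lung cancer cell lines in 1536-well plates were kept overnight at 37 °C, pinned with five √10-spaced library-drug doses, and after 5 days were Hoechst-stained, imaged at 4× and counted in MetaXpress. Plates passed only with control CV below 25% and at least one doubling.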

Compound in another assay: COc1cc([C@@H]2c3cc4c(cc3[C@@H](O[C@@H]3O[C@@H]5CO[C@@H](C)O[C@H]5[C@H](O)[C@H]3O)[C@H]3COC(=O)[C@H]23)OCO4)cc(OC)c1O [Etoposide]
In short, it runs like this:
as §2

As to NCI-H2023, the relative viability in the assay with Bleomycin + Alpelisib (first compound 0.01 µM) came out at 0.403; with Bleomycin + Alpelisib (first compound 0.03162 µM), 0.536; in the assay with Bleomycin + Alpelisib (first compound 0.1 µM) it was 0.325; with Bleomycin + Alpelisib (first compound 0.3162 µM) it was 0.149; in the assay with Bleomycin + Alpelisib (first compound 1 µM), 0.101; in the assay with Etoposide + Pemetrexed (first compound 0.01 µM), 0.241. Also, the relative viability was found to be 0.272 with Etoposide + Pemetrexed (first compound 0.03162 µM); 0.182 in the assay with Etoposide + Pemetrexed (first compound 0.1 µM); 0.156 in the assay with Etoposide + Pemetrexed (first compound 0.3162 µM); 0.143 in the assay with Etoposide + Pemetrexed (first compound 1 µM); 0.698 with Bleomycin (0.01 µM); 0.68 with Bleomycin (0.03162 µM). Further, the relative viability with Bleomycin (0.1 µM) came to 0.517; in the assay with Bleomycin (0.3162 µM), 0.21; in the assay with Bleomycin (1 µM) it was 0.142; with Etoposide (0.01 µM) it was 0.868; in the assay with Etoposide (0.03162 µM), 1.02; with Etoposide (0.1 µM), 0.599. For the same cell line, the relative viability with Etoposide (0.3162 µM) was 0.465; in the assay with Etoposide (1 µM) it was 0.148.
As for LC-2-ad, the relative viability stood at 0.699 with Bleomycin + Alpelisib (first compound 0.01 µM); 0.66 with Bleomycin + Alpelisib (first compound 0.03162 µM); 0.307 in the assay with Bleomycin + Alpelisib (first compound 0.1 µM); 0.126 with Bleomycin + Alpelisib (first compound 0.3162 µM); 0.106 with Bleomycin + Alpelisib (first compound 1 µM); 0.277 with Etoposide + Pemetrexed (first compound 0.01 µM). Besides, the relative viability is 0.279 in the assay with Etoposide + Pemetrexed (first compound 0.03162 µM); 0.298 with Etoposide + Pemetrexed (first compound 0.1 µM); 0.277 in the assay with Etoposide + Pemetrexed (first compound 0.3162 µM); 0.28 with Etoposide + Pemetrexed (first compound 1 µM); 0.756 with Bleomycin (0.01 µM); 0.726 with Bleomycin (0.03162 µM). The relative viability with Bleomycin (0.1 µM) was 0.549; with Bleomycin (0.3162 µM), 0.262; with Bleomycin (1 µM) it was 0.192; in the assay with Etoposide (0.01 µM), 0.974; in the assay with Etoposide (0.03162 µM), 1.07; in the assay with Etoposide (0.1 µM), 0.837. Besides, the relative viability with Etoposide (0.3162 µM) turned out to be 0.718; with Etoposide (1 µM), 0.261.
In the case of NCI-H1703, the relative viability in the assay with Bleomycin + Alpelisib (first compound 0.01 µM) was found to be 0.32; in the assay with Bleomycin + Alpelisib (first compound 0.03162 µM), 0.295; in the assay with Bleomycin + Alpelisib (first compound 0.1 µM), 0.278; in the assay with Bleomycin + Alpelisib (first compound 0.3162 µM) it was 0.173; in the assay with Bleomycin + Alpelisib (first compound 1 µM), 0.196; in the assay with Bleomycin (0.01 µM) it was 0.928. The relative viability is 0.895 with Bleomycin (0.03162 µM); 0.826 in the assay with Bleomycin (0.1 µM); 0.381 with Bleomycin (0.3162 µM); 0.272 in the assay with Bleomycin (1 µM); 0.761 with Etoposide (0.01 µM); 1.03 in the assay with Etoposide (0.03162 µM). The relative viability with Etoposide (0.1 µM) turned out to be 0.75; in the assay with Etoposide (0.3162 µM) it was 0.711; in the assay with Etoposide (1 µM) it was 0.371.
Regarding NCI-H1437, the relative viability was 0.799 in the assay with Bleomycin + Alpelisib (first compound 0.01 µM); 0.922 with Bleomycin + Alpelisib (first compound 0.03162 µM); 0.83 with Bleomycin + Alpelisib (first compound 0.1 µM); 0.406 with Bleomycin + Alpelisib (first compound 0.3162 µM); 0.396 in the assay with Bleomycin + Alpelisib (first compound 1 µM); 0.309 with Etoposide + Pemetrexed (first compound 0.01 µM). Moreover, the relative viability with Etoposide + Pemetrexed (first compound 0.03162 µM) was found to be 0.318; with Etoposide + Pemetrexed (first compound 0.1 µM) it was 0.303; with Etoposide + Pemetrexed (first compound 0.3162 µM), 0.325; in the assay with Etoposide + Pemetrexed (first compound 1 µM), 0.303; in the assay with Bleomycin (0.01 µM), 0.879; with Bleomycin (0.03162 µM) it was 0.985. Besides, the relative viability with Bleomycin (0.1 µM) was found to be 0.886; with Bleomycin (0.3162 µM), 0.654; with Bleomycin (1 µM), 0.567; with Etoposide (0.01 µM) it was 1.04; in the assay with Etoposide (0.03162 µM) it was 1.07; with Etoposide (0.1 µM), 0.999. For the same cell line, the relative viability is 0.68 with Etoposide (0.3162 µM) and 0.343 in the assay with Etoposide (1 µM).
Consider Calu-6, for which the relative viability with Bleomycin + Alpelisib (first compound 0.01 µM) was found to be 0.63; with Bleomycin + Alpelisib (first compound 0.03162 µM), 0.603; in the assay with Bleomycin + Alpelisib (first compound 0.1 µM), 0.333; with Bleomycin + Alpelisib (first compound 0.3162 µM) it was 0.181; in the assay with Bleomycin + Alpelisib (first compound 1 µM), 0.177; in the assay with Bleomycin (0.01 µM) it was 0.77. In addition, the relative viability with Bleomycin (0.03162 µM) is 0.784; in the assay with Bleomycin (0.1 µM), 0.495; with Bleomycin (0.3162 µM), 0.205; with Bleomycin (1 µM), 0.174; with Etoposide (0.01 µM) it was 0.938; in the assay with Etoposide (0.03162 µM), 0.985. Besides, the relative viability with Etoposide (0.1 µM) was 1.05; with Etoposide (0.3162 µM), 0.684; in the assay with Etoposide (1 µM), 0.365.
For NCI-H1650, the relative viability turned out to be 0.354 in the assay with Etoposide + Pemetrexed (first compound 0.01 µM); 0.376 with Etoposide + Pemetrexed (first compound 0.03162 µM); 0.388 with Etoposide + Pemetrexed (first compound 0.1 µM); 0.239 with Etoposide + Pemetrexed (first compound 0.3162 µM); 0.223 with Etoposide + Pemetrexed (first compound 1 µM); 0.584 with Bleomycin (0.01 µM). Further, the relative viability was 0.394 in the assay with Bleomycin (0.03162 µM); 0.243 with Bleomycin (0.1 µM); 0.179 with Bleomycin (0.3162 µM); 0.195 in the assay with Bleomycin (1 µM); 0.897 in the assay with Etoposide (0.01 µM); 0.903 with Etoposide (0.03162 µM). Besides, the relative viability with Etoposide (0.1 µM) is 0.739; with Etoposide (0.3162 µM), 0.38; with Etoposide (1 µM) it was 0.161.
For EBC-1, the relative viability with Bleomycin + Alpelisib (first compound 0.01 µM) worked out at 0.777; with Bleomycin + Alpelisib (first compound 0.03162 µM), 0.718; with Bleomycin + Alpelisib (first compound 0.1 µM) it was 0.696; with Bleomycin + Alpelisib (first compound 0.3162 µM) it was 0.501; with Bleomycin + Alpelisib (first compound 1 µM), 0.404; with Bleomycin (0.01 µM) it was 0.893. Moreover, the relative viability with Bleomycin (0.03162 µM) is 0.951; with Bleomycin (0.1 µM) it was 0.905; with Bleomycin (0.3162 µM), 0.836; in the assay with Bleomycin (1 µM), 0.602; with Etoposide (0.01 µM), 0.977; in the assay with Etoposide (0.03162 µM), 1.06. The figures for the relative viability in the assay with Etoposide (0.1 µM), with Etoposide (0.3162 µM) and in the assay with Etoposide (1 µM) were 0.714, 0.872 and 0.562, respectively.
For the cell line NCI-H1623, the relative viability with Bleomycin (0.01 µM) stood at 0.84; with Bleomycin (0.03162 µM), 0.936; with Bleomycin (0.1 µM) it was 0.807; with Bleomycin (0.3162 µM), 0.466; with Bleomycin (1 µM) it was 0.469; with Etoposide (0.01 µM), 0.859. Further, the relative viability with Etoposide (0.03162 µM) stood at 0.907; with Etoposide (0.1 µM), 0.687; with Etoposide (0.3162 µM), 0.818; with Etoposide (1 µM) it was 0.303.
As for NCI-H2342, the relative viability in the assay with Etoposide + Pemetrexed (first compound 0.01 µM) is 0.861; in the assay with Etoposide + Pemetrexed (first compound 0.03162 µM) it was 0.866; with Etoposide + Pemetrexed (first compound 0.1 µM), 0.472; with Etoposide + Pemetrexed (first compound 0.3162 µM), 0.421; with Etoposide + Pemetrexed (first compound 1 µM), 0.291; in the assay with Bleomycin (0.01 µM), 1.02. Further, the relative viability with Bleomycin (0.03162 µM) came out at 0.999; with Bleomycin (0.1 µM), 0.968; with Bleomycin (0.3162 µM), 0.759; in the assay with Bleomycin (1 µM), 0.653; with Etoposide (0.01 µM), 1.04; in the assay with Etoposide (0.03162 µM), 1.03. In addition, the relative viability stood at 0.533 with Etoposide (0.1 µM), 0.38 with Etoposide (0.3162 µM) and 0.34 in the assay with Etoposide (1 µM).

For the origin of these results see the supplement of paper PMC10307832.
